Experimental findings from ChEMBL document CHEMBL1201862, “PubChem BioAssay data set” (2004) are described below.

Among the test systems are MOLT-4; Malme-3M; U-251; HOP-62; KM12; A549; NCI-H522; RPMI-8226; 786-0; SK-MEL-2; OVCAR-5; EKVX; NCI-H23; HCT-15; MCF7; NCI/ADR-RES; MDA-MB-231; MDA-N; Hs-578T.
Common to all, as to assay: NCI tumour cell line growth inhibition, 48 h

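Where inhibition never reached the appropriate level, the endpoint shown equals the highest concentration tested. Otherwise, values were interpolated linearly from a five-concentration, 48-hour dose response in 96-well plates. GI50 = concentration required for 50% inhibition of growth.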 Activity calls are given as the source filed them. Cut-off read from the data, not from the text of the source: active = GI50 up to about 1.1 µM and inactive = higher. Bounds are passed on as bounds.

Take `C/C(CC(=O)Nc1cc(Cl)c(Cl)cc1Cl)=N\NC(N)=O`: the GI50 with MOLT-4, in the test on Malme-3M, with U-251, in the test with HOP-62, in the test on KM12 and in the test on A549 was > 100 µM (inactive) each time. Moreover, the GI50 was 28.1 µM (inactive) with NCI-H522; > 100 µM (inactive) with RPMI-8226; > 100 µM (inactive) in the test on 786-0; > 100 µM (inactive) with SK-MEL-2; > 100 µM (inactive) with OVCAR-5; > 100 µM (inactive) in the test with EKVX. The GI50 in the test with NCI-H23 is > 100 µM (inactive).
As for `Cn1c(=O)c2c(nc3n2C(CCl)CO3)n(C)c1=O` (configuration not stated), the GI50 with MOLT-4 is > 100 µM (inactive); with Malme-3M, > 100 µM (inactive); in the test on HCT-15, over 100 µM; with U-251 it was > 100 µM (inactive); with HOP-62 it was > 100 µM (inactive); in the test on KM12, > 100 µM (inactive). For the same compound, the GI50 in the test on NCI-H522, in the test on RPMI-8226, in the test with 786-0, with SK-MEL-2, in the test on OVCAR-5 and with EKVX was > 100 µM (inactive) throughout. Further, in the test on NCI-H23, the GI50 is > 100 µM (inactive).
For the compound `CN(C)CCN(C)CC1COC(C)(C)O1` (configuration not stated), the GI50 in the test with MOLT-4, in the test with Malme-3M, with U-251, with HOP-62, in the test on KM12 and in the test with A549 was > 100 µM (inactive) throughout. For the same compound, the GI50 in the test on NCI-H522, with RPMI-8226, in the test on 786-0, with SK-MEL-2, in the test on OVCAR-5 and with EKVX was > 100 µM (inactive) each time. Moreover, in the test with NCI-H23, the GI50 is > 100 µM (inactive).
`O=[N+]([O-])c1ccc(/C=C/c2ccc(/N=N/c3ccc(/C=C/c4ccc([N+](=O)[O-])cc4S(=O)(=O)O)c(S(=O)(=O)O)c3)cc2S(=O)(=O)O)c(S(=O)(=O)O)c1`: the GI50 in the test with MOLT-4 was > 100 µM (inactive); in the test with Malme-3M, > 100 µM (inactive); with MCF7, > 100 µM (inactive); in the test with HCT-15, over 63.7 µM; with U-251, > 100 µM (inactive); in the test with HOP-62, > 100 µM (inactive). The GI50 in the test with KM12, in the test with NCI/ADR-RES, in the test on A549, in the test on NCI-H522, with SK-MEL-2 and in the test with OVCAR-5 was > 100 µM (inactive) each time. The GI50 with EKVX and in the test on NCI-H23 was > 100 µM (inactive) throughout.
`O=C(c1ccccc1)c1nnn(Cc2cccc(Cl)c2)c1C(=O)c1ccccc1`: the GI50 in the test with MOLT-4 was > 100 µM (inactive); with Malme-3M it was > 100 µM (inactive); in the test with HCT-15, over 100 µM; with U-251, > 100 µM (inactive); in the test with HOP-62 it was > 100 µM (inactive); in the test with KM12, > 100 µM (inactive). In addition, the GI50 was 25.2 µM (inactive) in the test on A549; > 100 µM (inactive) in the test on NCI-H522; > 100 µM (inactive) in the test with RPMI-8226; > 100 µM (inactive) in the test with 786-0; > 100 µM (inactive) in the test on SK-MEL-2; > 100 µM (inactive) in the test on OVCAR-5. Moreover, the values for the GI50 in the test on EKVX and in the test on NCI-H23 were 44.8 µM (inactive) and > 100 µM (inactive), respectively.
As for `O=C(Nc1ccn(CCOC(=O)c2ccccc2)c(=O)n1)c1ccccc1`, the GI50 in the test with Malme-3M was > 100 µM (inactive); with HCT-15, over 100 µM; in the test on U-251, > 100 µM (inactive); in the test with HOP-62 it was > 100 µM (inactive); in the test on KM12, > 100 µM (inactive); in the test with A549, > 100 µM (inactive). Also, the GI50 in the test with NCI-H522, with RPMI-8226, in the test with 786-0, in the test on SK-MEL-2, in the test on OVCAR-5 and with EKVX was > 100 µM (inactive) in each case.
For the compound `CCC1=C(C[C@H]2NCCc3cc(OC)c(OC)cc32)C[C@H]2c3cc(OC)c(OC)cc3CCN2C1`, the GI50 is 0.0128 µM (active) with MOLT-4; 0.136 µM (active) in the test with Malme-3M; 0.258 µM in the test with HCT-15; 0.031 µM (active) in the test on U-251; 0.0286 µM (active) in the test on HOP-62; 0.0317 µM (active) in the test with A549. Besides, the GI50 is 0.0257 µM (active) in the test on NCI-H522; 0.021 µM (active) in the test with RPMI-8226; 0.0261 µM (active) in the test on 786-0; 0.0248 µM (active) in the test on SK-MEL-2; 0.0521 µM (active) with OVCAR-5; 0.0362 µM (active) with EKVX. The GI50 in the test on NCI-H23 is 0.0191 µM (active).
Consider `CC(=O)C(=C(I)I)c1ccccc1`, for which the GI50 in the test with MOLT-4 is 13.4 µM (inactive); in the test with Malme-3M, 12.3 µM (inactive); with MCF7, 27.6 µM (inactive); in the test with HCT-15 it was 29.3 µM; with U-251, 17.5 µM (inactive); in the test on HOP-62, 20.9 µM (inactive). The GI50 with KM12 was 20.9 µM (inactive); with NCI/ADR-RES, 21.1 µM (inactive); in the test with A549, 24.6 µM (inactive); in the test with MDA-MB-231 it was 22.3 µM (inactive); in the test on NCI-H522, 12.7 µM (inactive); in the test with MDA-N it was 15.2 µM (inactive). Besides, the GI50 in the test on 786-0 is 19.7 µM (inactive); with SK-MEL-2, 21.8 µM (inactive); in the test on OVCAR-5, 23.3 µM (inactive); with EKVX it was 25.7 µM (inactive); with NCI-H23 it was 16.8 µM (inactive).
As to `CC(C)=CC1CC(=[N+]=[N-])C(=O)C1(C)C` (configuration not stated), the GI50 with MOLT-4 was > 100 µM (inactive); in the test with Malme-3M, > 100 µM (inactive); with HCT-15 it was 86.5 µM; with U-251, > 100 µM (inactive); in the test on HOP-62, > 100 µM (inactive); in the test on KM12 it was > 100 µM (inactive). Besides, the GI50 with A549 is > 100 µM (inactive); in the test on NCI-H522, > 80.7 µM (inactive); with RPMI-8226, > 51.8 µM (inactive); with 786-0 it was > 100 µM (inactive); in the test with SK-MEL-2 it was > 100 µM (inactive); in the test with OVCAR-5, > 100 µM (inactive). The GI50 in the test with EKVX and in the test with NCI-H23 was > 100 µM (inactive) each time.
On to `O=NN1C(c2ccccc2)C2CCCC(C2=O)C1c1ccccc1` (configuration not stated), for which the GI50 with MOLT-4 was 27.1 µM (inactive); in the test on Malme-3M, 7.53 µM (inactive); in the test with MCF7, 20.7 µM (inactive); with HCT-15, 29.3 µM; in the test on U-251, 29.3 µM (inactive); in the test on HOP-62, 27 µM (inactive). Also, the GI50 with KM12 was 32.5 µM (inactive); in the test on NCI/ADR-RES it was 32.7 µM (inactive); in the test on A549, 34 µM (inactive); in the test with NCI-H522, 19.1 µM (inactive); with RPMI-8226, 22.3 µM (inactive); in the test on SK-MEL-2, 20.2 µM (inactive). In addition, the GI50 with OVCAR-5 is 37.2 µM (inactive); in the test on EKVX it was 28.4 µM (inactive); with NCI-H23, 19.7 µM (inactive).
For `Nc1nc2[nH]c(=O)cnc2c(=O)[nH]1` [ISOXANTHOPTERIN], the GI50 in the test with MOLT-4 was > 125 µM (inactive); in the test on Malme-3M, > 108 µM (inactive); in the test with MCF7 it was > 125 µM (inactive); with HCT-15, over 78.9 µM; in the test on U-251, > 125 µM (inactive); in the test with HOP-62, > 125 µM (inactive). The GI50 with KM12 is > 125 µM (inactive); in the test with NCI/ADR-RES, > 125 µM (inactive); with A549, > 125 µM (inactive); in the test with NCI-H522, > 19.8 µM (inactive); in the test on RPMI-8226 it was > 125 µM (inactive); in the test on SK-MEL-2, > 125 µM (inactive). Also, the GI50 in the test with OVCAR-5 was > 99.1 µM (inactive); in the test with EKVX it was > 125 µM (inactive); with NCI-H23, > 125 µM (inactive).
Turning to `Cc1cccc(-c2cc(=S)c3cc(N4CCCC4)ccc3[nH]2)c1`, the GI50 was > 100 µM (inactive) with MOLT-4; > 100 µM (inactive) in the test on MCF7; over 100 µM with HCT-15; > 100 µM (inactive) in the test with U-251; > 100 µM (inactive) in the test on HOP-62; > 100 µM (inactive) in the test on KM12. The GI50 with Hs-578T, with NCI/ADR-RES, in the test on A549, with MDA-MB-231, in the test on RPMI-8226 and in the test with MDA-N was > 100 µM (inactive) in each case. Also, the GI50 in the test on 786-0, with SK-MEL-2, with OVCAR-5 and in the test with EKVX was > 100 µM (inactive) throughout.
For the compound `C=C(Br)CN(C#N)CC(=C)Br`, the GI50 with MOLT-4 is > 100 µM (inactive); in the test on Malme-3M, > 100 µM (inactive); in the test on MCF7 it was > 100 µM (inactive); in the test on HCT-15 it was over 100 µM; in the test on U-251, > 100 µM (inactive); in the test with HOP-62, > 100 µM (inactive). In addition, the GI50 with KM12, in the test on Hs-578T, with NCI/ADR-RES, with A549, in the test on MDA-MB-231 and with NCI-H522 was > 100 µM (inactive) throughout. In addition, the GI50 with RPMI-8226, in the test with MDA-N, in the test with 786-0, in the test with SK-MEL-2, in the test with OVCAR-5 and in the test with EKVX was > 100 µM (inactive) throughout. Besides, the GI50 in the test on NCI-H23 was > 100 µM (inactive).
As for `CN1CCOC(c2ccccc2)O1` (configuration not stated), the GI50 in the test on MOLT-4 was > 100 µM (inactive); with Malme-3M it was > 100 µM (inactive); in the test with HCT-15, over 100 µM; in the test with U-251, > 100 µM (inactive); in the test with HOP-62, > 100 µM (inactive); in the test on KM12, > 100 µM (inactive). Besides, the GI50 in the test with A549, in the test on NCI-H522, in the test with RPMI-8226, with 786-0, with SK-MEL-2 and with OVCAR-5 was > 100 µM (inactive) each time. Also, the GI50 with EKVX and in the test on NCI-H23 was > 100 µM (inactive) in each case.
